Test results taken from ChEMBL document CHEMBL5518230, “Identification of a Novel Selective CDK9 Inhibitor for the Treatment of CRC: Design, Synthesis, and Biological Activity Evaluation” (J Med Chem, 2024).
Active and inactive are the calls of the source. The calls are words filed in the database; no cut-off is given here.

Key:
[1] = molecular target: Cyclin-dependent kinase 1 (Homo sapiens, UniProt P06493); assay: Inhibition of CDK1 (unknown origin)
[2] = molecular target: Cyclin-dependent kinase 7 (Homo sapiens, UniProt P50613); assay: Inhibition of CDK7 (unknown origin)
[3] = molecular target: Cyclin-dependent kinase 9 (Homo sapiens, UniProt P50750); assay: Inhibition of CDK9 (unknown origin)
[4] = Intrinsic microsomal clearance in human liver microsomes at 100 uM measured upto 60 mins in presence of NADPH by LC-MS/MS analysis; format: ADME, Microsome; conditions: read-out: CLH
[5] = Stability in human liver microsomes assessed as compound remaining at 100 uM measured upto 60 mins in presence of NADPH by LC-MS/MS analysis; format: ADME, Microsome; conditions: read-out: Stability
CYP2C9 = CYP2C9 (Homo sapiens, UniProt P11712); assay: Inhibition of CYP2C9 in human liver microsomes using sulfaphenazole as […] at 10 uM preincubated for 10 mins followed by NADPH addition measured after 15 mins by LC-MS/MS analysis relative to control; format: ADME, Microsome; conditions: probe sulfaphenazole, time 25 min
CYP2D6 = CYP2D6 (Homo sapiens, UniProt P10635); assay: Inhibition of CYP2D6 in human liver microsomes using quinidine as […] at 10 uM preincubated for 10 mins followed by NADPH addition measured after 15 mins by LC-MS/MS analysis relative to control; format: ADME, Microsome; conditions: time 25 min
SW480 = assay: Growth inhibition of human SW480 cells incubated for 48 hrs by CCK-8 assay; format: functional
[6] = Selectivity index, ratio of GI50 for growth inhibition of human CCC-HIE-2 cells to GI50 for growth inhibition of human HCT-116 cells
[7] = AUC (0 to infinity) in Sprague-Dawley rat at 2 mg/kg,iv administration measured for 0.25 to 24 hrs by LC-MS/MS analysis; format: ADME, organism-based; conditions: in vivo, time 0.25-24 hrs
[8] = Apparent volume of distribution in Sprague-Dawley rat at 2 mg/kg,iv administration measured for 0.25 to 24 hrs by LC-MS/MS analysis; format: ADME, organism-based; conditions: in vivo, time 0.25-24 hrs, read-out: Vz
[9] = Clearance in Sprague-Dawley rat at 2 mg/kg,iv administration measured for 0.25 to 24 hrs by LC-MS/MS analysis; format: ADME, organism-based; conditions: in vivo, time 0.25-24 hrs
[10] = AUC (0 to t) in Sprague-Dawley rat at 10 mg/kg,po administration measured for 0.25 to 24 hrs by LC-MS/MS analysis; format: ADME, organism-based; conditions: in vivo, time 0.25-24 hrs
[11] = AUC (0 to infinity) in Sprague-Dawley rat at 10 mg/kg,po administration measured for 0.25 to 24 hrs by LC-MS/MS analysis; format: ADME, organism-based; conditions: in vivo, time 0.25-24 hrs
[12] = MRT (0 to t) in Sprague-Dawley rat at 10 mg/kg,po administration measured for 0.25 to 24 hrs by LC-MS/MS analysis; format: ADME, organism-based; conditions: in vivo, time 0.25-24 hrs
[13] = MRT (0 to infinity) in Sprague-Dawley rat at 10 mg/kg,po administration measured for 0.25 to 24 hrs by LC-MS/MS analysis; format: ADME, organism-based; conditions: in vivo, time 0.25-24 hrs
[14] = molecular target: TGF-beta receptor type-2 (Homo sapiens) (UniProt P37173); assay: Inhibition of human TGFbetaR2 at 100 nM by kinase profiling assay relative to control
[15] = molecular target: Serine/threonine-protein kinase PAK 4 (Homo sapiens) (UniProt O96013); assay: Inhibition of human PAK4 at 100 nM by kinase profiling assay relative to control
[16] = molecular target: Activin receptor type-1B (Homo sapiens) (UniProt P36896); assay: Inhibition of human ALK4 at 100 nM by kinase profiling assay relative to control
[17] = molecular target: Serine/threonine-protein kinase PLK2 (Homo sapiens) (UniProt Q9NYY3); assay: Inhibition of human PLK2 at 100 nM by kinase profiling assay relative to control
[18] = molecular target: cAMP-dependent protein kinase catalytic subunit alpha (Homo sapiens) (UniProt P17612); assay: Inhibition of human PKACalpha at 100 nM by kinase profiling assay relative to control
[19] = molecular target: Inhibitor of nuclear factor kappa-B kinase subunit alpha (Homo sapiens) (UniProt O15111); assay: Inhibition of human IKKalpha at 100 nM by kinase profiling assay relative to control
[20] = molecular target: Protein kinase C alpha type (Homo sapiens) (UniProt P17252); assay: Inhibition of human PKCalpha at 100 nM by kinase profiling assay relative to control
HCT-116 [21] = assay: Induction of apoptosis in human HCT-116 cells assessed as increase in caspase-3 activity incubated for 48 hrs by GreenNuc substrate based flow cytometric analysis; format: functional, cell-based
HCT-116 [22] = assay: Induction of apoptosis in human HCT-116 cells assessed as downregulation of […] mRNA expression at 25 to 400 nM incubated for 48 hrs by qRT-PCR analysis; format: functional, cell-based; conditions: dose 25-400 nM
HCT-116 [23] = assay: Induction of apoptosis in human HCT-116 cells assessed as downregulation of cleaved caspase-3 expression at 25 to 400 nM incubated for 48 hrs by Western blotting analysis; format: functional, cell-based; conditions: dose 25-400 nM
[24] = Toxicity in BALB/c mouse xenografted with human HCT-116 cells assessed as body weight loss at 50 mg/kg,po administrated once daily for 3 weeks; format: organism-based; conditions: in vivo, 504 h
HCT-116 [25] = assay: Antitumor activity against human HCT-116 cells xenografted in BALB/c mouse assessed as downregulation of RNA polymerase II phosphorylation at 25 mg/kg,po administrated once daily for 3 weeks by Western blotting analysis; format: functional, organism-based
HCT-116 [26] = assay: Antitumor activity against human HCT-116 cells xenografted in BALB/c mouse assessed as downregulation of Mcl-1 expression at 25 mg/kg,po administrated once daily for 3 weeks by Western blotting analysis; format: functional, organism-based
HCT-116 [27] = assay: Antitumor activity against human HCT-116 cells xenografted in BALB/c mouse assessed as downregulation of Mcl-1 expression at 50 mg/kg,po administrated once daily for 3 weeks by Western blotting analysis; format: functional, organism-based
HCT-116 [28] = assay: Antitumor activity against human HCT-116 cells xenografted in BALB/c mouse assessed as upregulation of PARP expression at 50 mg/kg,po administrated once daily for 3 weeks by Western blotting analysis; format: functional, organism-based
[29] = Toxicity in BALB/c mouse xenografted with human HCT-116 cells assessed as heart morphological change at 50 mg/kg,po administrated once daily for 3 weeks by hematoxylin and eosin staining based microscopic analysis; format: organism-based; conditions: in vivo, 504 h
[30] = Toxicity in BALB/c mouse xenografted with human HCT-116 cells assessed as liver morphological change at 50 mg/kg,po administrated once daily for 3 weeks by hematoxylin and eosin staining based microscopic analysis; format: organism-based; conditions: in vivo, 504 h
[31] = Toxicity in BALB/c mouse xenografted with human HCT-116 cells assessed as lung morphological change at 25 mg/kg,po administrated once daily for 3 weeks by hematoxylin and eosin staining based microscopic analysis; format: organism-based; conditions: in vivo, 504 h
[32] = Toxicity in BALB/c mouse xenografted with human HCT-116 cells assessed as lung morphological change at 50 mg/kg,po administrated once daily for 3 weeks by hematoxylin and eosin staining based microscopic analysis; format: organism-based; conditions: in vivo, 504 h
[33] = Toxicity in BALB/c mouse xenografted with human HCT-116 cells assessed as kidney morphological change at 25 mg/kg,po administrated once daily for 3 weeks by hematoxylin and eosin staining based microscopic analysis; format: organism-based; conditions: in vivo, 504 h

Activin receptor type-1B (Homo sapiens), sequence (P36896 whole entry): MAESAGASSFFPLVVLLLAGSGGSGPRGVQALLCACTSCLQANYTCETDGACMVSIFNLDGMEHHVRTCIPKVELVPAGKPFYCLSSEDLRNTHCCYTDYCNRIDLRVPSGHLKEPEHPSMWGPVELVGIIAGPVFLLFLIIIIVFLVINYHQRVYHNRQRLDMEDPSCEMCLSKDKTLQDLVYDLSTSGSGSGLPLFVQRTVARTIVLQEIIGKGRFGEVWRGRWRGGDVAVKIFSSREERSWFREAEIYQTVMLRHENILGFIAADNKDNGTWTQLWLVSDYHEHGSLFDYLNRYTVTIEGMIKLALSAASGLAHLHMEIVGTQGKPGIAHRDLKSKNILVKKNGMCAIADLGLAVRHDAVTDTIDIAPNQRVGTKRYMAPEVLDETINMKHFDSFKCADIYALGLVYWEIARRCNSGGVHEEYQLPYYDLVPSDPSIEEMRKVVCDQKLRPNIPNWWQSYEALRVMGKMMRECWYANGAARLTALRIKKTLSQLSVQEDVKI
CYP2C9, sequence (P11712 whole entry): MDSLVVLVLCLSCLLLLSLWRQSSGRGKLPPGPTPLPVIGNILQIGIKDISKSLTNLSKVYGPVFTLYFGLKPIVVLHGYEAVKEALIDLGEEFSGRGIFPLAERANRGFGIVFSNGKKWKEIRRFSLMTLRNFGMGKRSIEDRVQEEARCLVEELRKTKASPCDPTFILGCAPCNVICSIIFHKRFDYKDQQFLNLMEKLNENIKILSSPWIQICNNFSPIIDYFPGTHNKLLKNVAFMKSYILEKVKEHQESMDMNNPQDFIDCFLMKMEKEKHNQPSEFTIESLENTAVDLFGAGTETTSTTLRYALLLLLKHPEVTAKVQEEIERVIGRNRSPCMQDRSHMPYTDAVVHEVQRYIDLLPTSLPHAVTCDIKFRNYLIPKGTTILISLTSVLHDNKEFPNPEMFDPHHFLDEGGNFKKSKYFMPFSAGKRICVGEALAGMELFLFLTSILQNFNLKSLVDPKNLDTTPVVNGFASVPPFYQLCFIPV
Cyclin-dependent kinase 9, sequence (P50750 whole entry): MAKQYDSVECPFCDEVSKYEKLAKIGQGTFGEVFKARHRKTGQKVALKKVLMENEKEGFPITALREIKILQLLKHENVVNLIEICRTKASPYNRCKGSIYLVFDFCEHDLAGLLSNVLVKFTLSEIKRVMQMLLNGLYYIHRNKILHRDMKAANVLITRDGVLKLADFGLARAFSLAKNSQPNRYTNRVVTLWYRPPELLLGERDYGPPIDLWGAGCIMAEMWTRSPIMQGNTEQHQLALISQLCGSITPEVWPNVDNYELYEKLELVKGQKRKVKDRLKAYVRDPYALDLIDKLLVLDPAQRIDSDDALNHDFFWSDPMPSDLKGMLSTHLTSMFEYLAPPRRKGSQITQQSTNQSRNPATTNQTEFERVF
TGF-beta receptor type-2 (Homo sapiens), sequence (P37173 whole entry): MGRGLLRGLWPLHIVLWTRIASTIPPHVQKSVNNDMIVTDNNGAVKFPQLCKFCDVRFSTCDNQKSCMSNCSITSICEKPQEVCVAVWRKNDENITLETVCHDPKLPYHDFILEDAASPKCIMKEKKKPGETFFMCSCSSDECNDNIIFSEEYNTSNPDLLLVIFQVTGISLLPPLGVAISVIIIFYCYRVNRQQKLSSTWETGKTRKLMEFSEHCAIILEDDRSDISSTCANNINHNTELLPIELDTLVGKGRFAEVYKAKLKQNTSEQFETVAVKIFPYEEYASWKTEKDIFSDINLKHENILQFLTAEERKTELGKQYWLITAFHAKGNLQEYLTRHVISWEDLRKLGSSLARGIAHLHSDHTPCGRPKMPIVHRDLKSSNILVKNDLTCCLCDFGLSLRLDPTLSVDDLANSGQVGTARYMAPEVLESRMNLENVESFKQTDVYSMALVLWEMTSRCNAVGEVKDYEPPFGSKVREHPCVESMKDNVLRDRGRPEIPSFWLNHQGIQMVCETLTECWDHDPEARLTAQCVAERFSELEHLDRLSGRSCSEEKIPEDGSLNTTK
Inhibitor of nuclear factor kappa-B kinase subunit alpha (Homo sapiens), sequence (O15111 whole entry): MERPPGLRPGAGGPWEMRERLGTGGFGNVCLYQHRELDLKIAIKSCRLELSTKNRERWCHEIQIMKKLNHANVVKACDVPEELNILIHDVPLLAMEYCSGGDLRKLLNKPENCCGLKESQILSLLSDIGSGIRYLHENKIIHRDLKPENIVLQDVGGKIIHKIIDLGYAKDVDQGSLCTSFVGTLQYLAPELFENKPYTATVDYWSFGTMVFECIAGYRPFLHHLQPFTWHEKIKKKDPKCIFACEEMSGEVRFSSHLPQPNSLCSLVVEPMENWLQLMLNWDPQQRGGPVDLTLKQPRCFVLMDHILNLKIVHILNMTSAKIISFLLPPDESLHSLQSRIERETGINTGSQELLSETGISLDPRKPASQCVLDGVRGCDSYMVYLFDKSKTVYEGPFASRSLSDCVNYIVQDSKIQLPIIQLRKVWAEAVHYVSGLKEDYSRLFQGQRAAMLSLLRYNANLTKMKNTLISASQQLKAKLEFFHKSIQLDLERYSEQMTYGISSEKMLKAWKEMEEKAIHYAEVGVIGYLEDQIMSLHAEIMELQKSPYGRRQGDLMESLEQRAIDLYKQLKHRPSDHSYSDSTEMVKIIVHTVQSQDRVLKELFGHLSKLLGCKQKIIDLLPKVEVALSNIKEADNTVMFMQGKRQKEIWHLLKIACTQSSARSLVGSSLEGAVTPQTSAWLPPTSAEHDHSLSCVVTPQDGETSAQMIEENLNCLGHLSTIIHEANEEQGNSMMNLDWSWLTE
Cyclin-dependent kinase 7, sequence (P50613 whole entry): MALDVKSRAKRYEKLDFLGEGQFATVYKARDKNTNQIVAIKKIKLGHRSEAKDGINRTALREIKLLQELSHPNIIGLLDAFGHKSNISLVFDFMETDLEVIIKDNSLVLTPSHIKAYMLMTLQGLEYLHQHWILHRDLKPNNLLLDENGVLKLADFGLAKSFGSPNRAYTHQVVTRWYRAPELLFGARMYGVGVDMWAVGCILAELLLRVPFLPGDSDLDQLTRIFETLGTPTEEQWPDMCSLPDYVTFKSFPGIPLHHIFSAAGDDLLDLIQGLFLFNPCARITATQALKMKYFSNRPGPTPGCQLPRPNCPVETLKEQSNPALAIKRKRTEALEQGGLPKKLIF
Serine/threonine-protein kinase PLK2 (Homo sapiens), sequence (Q9NYY3 whole entry, looked up): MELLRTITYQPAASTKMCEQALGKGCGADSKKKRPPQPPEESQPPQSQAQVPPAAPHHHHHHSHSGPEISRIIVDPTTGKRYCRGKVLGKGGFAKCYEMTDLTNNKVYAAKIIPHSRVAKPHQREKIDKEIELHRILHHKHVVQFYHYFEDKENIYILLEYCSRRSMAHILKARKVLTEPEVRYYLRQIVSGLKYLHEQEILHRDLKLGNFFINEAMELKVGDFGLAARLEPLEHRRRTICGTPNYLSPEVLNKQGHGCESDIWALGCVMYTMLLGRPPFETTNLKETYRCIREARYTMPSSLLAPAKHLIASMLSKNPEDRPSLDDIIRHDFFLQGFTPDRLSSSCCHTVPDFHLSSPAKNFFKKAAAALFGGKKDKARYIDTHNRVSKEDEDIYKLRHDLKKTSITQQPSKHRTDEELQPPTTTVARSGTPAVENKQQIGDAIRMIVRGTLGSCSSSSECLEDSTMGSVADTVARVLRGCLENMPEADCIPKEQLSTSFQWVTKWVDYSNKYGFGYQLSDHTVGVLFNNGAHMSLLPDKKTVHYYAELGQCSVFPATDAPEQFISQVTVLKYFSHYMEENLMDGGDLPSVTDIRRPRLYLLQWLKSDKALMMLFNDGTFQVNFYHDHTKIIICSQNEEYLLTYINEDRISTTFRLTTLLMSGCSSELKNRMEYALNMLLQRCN
Cyclin-dependent kinase 1, sequence (P06493 whole entry): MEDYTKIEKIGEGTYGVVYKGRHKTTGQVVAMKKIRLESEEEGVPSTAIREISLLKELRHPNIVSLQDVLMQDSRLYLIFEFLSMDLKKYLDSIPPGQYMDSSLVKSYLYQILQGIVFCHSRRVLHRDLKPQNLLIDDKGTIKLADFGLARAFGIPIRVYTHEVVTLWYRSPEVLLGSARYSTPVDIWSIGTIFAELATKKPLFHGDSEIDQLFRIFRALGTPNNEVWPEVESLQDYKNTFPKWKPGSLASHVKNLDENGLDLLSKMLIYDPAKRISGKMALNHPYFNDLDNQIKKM

IC50 [1]: 439 nM
IC50 [2]: > 500 nM
IC50 [3]: 2.9 nM
microsomal CLint at 100 µM [4]: 55.1 µL/min/mg
remaining at 1 h, 100 µM [5]: 19.6%
inhibition at 0.25 h, 10 µM (CYP2C9): 27.9%
inhibition at 0.25 h, 10 µM (CYP2D6): 9.9%
GI50 (SW480): 5090 nM
AUC(0-inf) [7]: 373 ng·h/mL
Vd [8]: 13.4 L/kg
clearance [9]: 89.8 mL/min/kg
AUC(0-t) [10]: 168 ng·h/mL
AUC(0-inf) [11]: 199 ng·h/mL
MRT last [12]: 4.62 h
MRT inf [13]: 7.02 h
inhibition [14]: < 50%
inhibition [15]: < 50%
inhibition [16]: < 50%
inhibition [17]: < 50%
inhibition [18]: < 50%
inhibition [19]: < 50%
inhibition [20]: < 50%
Structure (SMILES): CC(C)n1nnc2ccc(-c3ccnc(Nc4cc(C(=O)N5CCCN(C)CC5)ccn4)c3)cc21
RatioGI50 [6]: 173.46
Activity (HCT-116 [21]): Dose-Dependent Effect
Activity (HCT-116 [22]): Active
Activity (HCT-116 [23]): Active
Activity [24]: Non-Toxic
Activity (HCT-116 [25]): Active
Activity (HCT-116 [26]): Active
Activity (HCT-116 [27]): Active
Activity (HCT-116 [28]): Active
Activity [29]: Non-Toxic
Activity [30]: Non-Toxic
Activity [31]: Non-Toxic
Activity [32]: Non-Toxic
Activity [33]: Non-Toxic
